Results published in patent US20080009418A1, “Selective Inhibitors” (Alchemia LTD., priority 2004, published 2008).

Assays:
[1] = target: T1, Human δ-opioid (DOP) (Homo sapiens, UniProt P41143); assay: Radioligand binding, human δ-opioid (DOP) membranes, FlashPlate, [3H]-Bremazocine; conditions: compound at 10 μM; [3H]-Bremazocine
T1 construct: purchased Perkin Elmer Biosignal
Summary of the method: (§1)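 Cloned human receptor membranes were coated onto FlashPlate wells and incubated with radioligand and compound (added from a 0.5 mM DMSO daughter plate) for 1 hour at room temperature in the dark. Scintillation counting gave percent inhibition, with DMSO defining total and reference ligand defining non-specific binding.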

[2] = target: T2, Human κ-Opioid (KOP) (Homo sapiens, UniProt P41145); assay: Radioligand binding, human κ-opioid (KOP) membranes, filtration, [3H]-Diprenorphine; conditions: compound at 10 μM; [3H]-Diprenorphine
T2 construct: purchased Perkin Elmer Biosignal
Summary of the method: (§2)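 Filtration binding on cloned human receptor membranes (1 Unit/well), [125I]-Substance P for NK1 and [3H]-Diprenorphine for KOP, 1 h at room temperature. Filters PEI-presoaked, washed with cold 50 mM Tris-HCl pH 7.4, counted by scintillation; percent inhibition calculated, reference ligand defining non-specific binding.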

[3] = target: T3, Human Melanocortin (MC3) (Homo sapiens, UniProt P41968); assay: Radioligand binding, human melanocortin MC3 membranes, FlashPlate, [125I]-NDP-αMSH; conditions: compound at 10 μM; [125I]-NDP-αMSH
T3 construct: purchased Perkin Elmer Biosignal
Summary of the method: as §1

[4] = target: T4, Human Melanocortin (MC4) (Homo sapiens, UniProt P32245); assay: Radioligand binding, human melanocortin MC4 membranes, FlashPlate, [125I]-NDP-αMSH; conditions: compound at 10 μM, [125I]-NDP-αMSH
T4 construct: purchased Perkin Elmer Biosignal
Summary of the method: as §1

[5] = target: T5, Human melanocortin (MC5) (Homo sapiens, UniProt P33032); assay: Radioligand binding, human melanocortin MC5 membranes, FlashPlate, [125I]-NDP-αMSH; conditions: compound at 10 μM, [125I]-NDP-αMSH
T5 construct: purchased Perkin Elmer Biosignal
Summary of the method: as §1

[6] = target: T6, Human melanin-concentrating hormone (MCH1) (Homo sapiens, UniProt Q99705); assay: Radioligand binding, human melanin-concentrating hormone MCH1 membranes, FlashPlate, [125I]-S36057; conditions: compound at 10 μM, [125I]-S36057
T6 construct: purchased Perkin Elmer Biosignal
Summary of the method: as §1

[7] = target: T7, Human μ-opioid (MOP) (Homo sapiens, UniProt P35372); assay: Radioligand binding, human μ-opioid (MOP) membranes, FlashPlate, [3H]-Naloxone; conditions: compound at 10 μM, [3H]-Naloxone
T7 construct: purchased Perkin Elmer Biosignal
Summary of the method: as §1

[8] = target: T8, Human neurokinin (NK1) (Homo sapiens, UniProt P25103); assay: Radioligand binding, human neurokinin NK1 membranes, filtration, [125I]-Substance P; conditions: compound at 10 μM, [125I]-Substance P
T8 construct: purchased Perkin Elmer Biosignal
Summary of the method: as §2

[9] = target: T9, Human neuropeptide Y (NPY-Y1) (Homo sapiens, UniProt P25929); assay: Radioligand binding, human neuropeptide Y NPY-Y1 membranes, FlashPlate, [125I]-PYY; conditions: compound at 10 μM; [125I]-PYY
T9 construct: purchased Perkin Elmer Biosignal
T9 sequence (P25929 1-384): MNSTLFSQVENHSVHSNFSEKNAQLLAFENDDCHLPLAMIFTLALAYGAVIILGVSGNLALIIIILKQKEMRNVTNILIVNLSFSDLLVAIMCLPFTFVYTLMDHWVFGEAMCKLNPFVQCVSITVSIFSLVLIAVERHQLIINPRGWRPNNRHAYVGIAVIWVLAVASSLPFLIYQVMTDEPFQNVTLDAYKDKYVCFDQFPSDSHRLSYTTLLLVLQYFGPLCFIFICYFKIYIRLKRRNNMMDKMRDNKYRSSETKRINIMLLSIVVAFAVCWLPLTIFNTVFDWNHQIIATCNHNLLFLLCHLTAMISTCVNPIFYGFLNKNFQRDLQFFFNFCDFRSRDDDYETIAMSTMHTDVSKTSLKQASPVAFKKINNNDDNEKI
Summary of the method: as §1

[10] = target: T10, Human opioid (ORL1) (Homo sapiens, UniProt P41146); assay: Radioligand binding, human opioid ORL1 membranes, FlashPlate, [125I]-Nociceptin; conditions: compound at 10 μM, [125I]-Nociceptin
T10 construct: purchased Perkin Elmer Biosignal
Summary of the method: as §1

[11] = target: T11, Mouse urotensin (mUR2) (Mus musculus, UniProt Q8VIH9); assay: Radioligand binding, mouse urotensin mUR2 membranes, FlashPlate, [125I]-Urotensin II; conditions: compound at 10 μM; [125I]-Urotensin II
T11 construct: purchased Perkin Elmer Biosignal
T11 sequence (Q8VIH9 1-385): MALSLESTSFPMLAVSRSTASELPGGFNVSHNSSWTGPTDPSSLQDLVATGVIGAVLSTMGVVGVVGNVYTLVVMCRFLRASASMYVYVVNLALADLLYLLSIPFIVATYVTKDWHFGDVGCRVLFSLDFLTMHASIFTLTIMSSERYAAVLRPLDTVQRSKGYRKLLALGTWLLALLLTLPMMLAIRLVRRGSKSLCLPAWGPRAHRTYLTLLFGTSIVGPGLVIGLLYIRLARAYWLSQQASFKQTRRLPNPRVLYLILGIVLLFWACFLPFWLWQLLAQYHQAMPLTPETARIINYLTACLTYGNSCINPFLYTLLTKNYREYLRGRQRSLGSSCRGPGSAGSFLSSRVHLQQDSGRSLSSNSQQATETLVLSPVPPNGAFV
Summary of the method: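 Cloned mouse urotensin (mUR2) receptor membranes from Perkin Elmer Biosignal were immobilized in FlashPlate microplates using a proprietary coating. Each well got 19.5 μl buffer, then 0.5 μl of DMSO, reference ligand, or compound. Adding 5 μl of [125I]-Urotensin II, diluted to 5× final concentration in binding buffer, started binding. Plates were sealed with TopSeal-A and incubated 1 hour at room temperature in the dark. Wells were counted for 30 seconds each on a TopCount after a 60-second delay, and percentage inhibition was calculated.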

T1 sequence (P41143 whole entry): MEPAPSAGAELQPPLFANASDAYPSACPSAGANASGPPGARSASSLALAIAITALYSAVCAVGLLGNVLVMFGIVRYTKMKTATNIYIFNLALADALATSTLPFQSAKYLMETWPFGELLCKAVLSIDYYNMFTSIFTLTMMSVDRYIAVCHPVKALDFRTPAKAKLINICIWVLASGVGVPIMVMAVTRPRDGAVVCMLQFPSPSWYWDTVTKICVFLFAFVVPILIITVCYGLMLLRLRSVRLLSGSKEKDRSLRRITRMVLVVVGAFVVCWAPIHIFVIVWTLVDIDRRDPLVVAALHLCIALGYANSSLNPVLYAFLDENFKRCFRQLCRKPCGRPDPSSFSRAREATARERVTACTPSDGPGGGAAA
T10 sequence (P41146 whole entry): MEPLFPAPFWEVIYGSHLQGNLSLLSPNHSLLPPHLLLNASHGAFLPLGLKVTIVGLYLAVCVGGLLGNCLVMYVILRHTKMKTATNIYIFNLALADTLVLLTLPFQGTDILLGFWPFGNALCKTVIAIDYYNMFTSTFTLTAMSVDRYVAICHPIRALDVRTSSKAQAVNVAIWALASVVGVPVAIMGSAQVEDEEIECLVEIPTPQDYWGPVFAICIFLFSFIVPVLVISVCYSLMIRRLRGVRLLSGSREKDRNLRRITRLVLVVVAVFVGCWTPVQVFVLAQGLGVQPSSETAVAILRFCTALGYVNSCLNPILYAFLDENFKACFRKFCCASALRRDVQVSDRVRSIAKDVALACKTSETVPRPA
T8 sequence (P25103 whole entry): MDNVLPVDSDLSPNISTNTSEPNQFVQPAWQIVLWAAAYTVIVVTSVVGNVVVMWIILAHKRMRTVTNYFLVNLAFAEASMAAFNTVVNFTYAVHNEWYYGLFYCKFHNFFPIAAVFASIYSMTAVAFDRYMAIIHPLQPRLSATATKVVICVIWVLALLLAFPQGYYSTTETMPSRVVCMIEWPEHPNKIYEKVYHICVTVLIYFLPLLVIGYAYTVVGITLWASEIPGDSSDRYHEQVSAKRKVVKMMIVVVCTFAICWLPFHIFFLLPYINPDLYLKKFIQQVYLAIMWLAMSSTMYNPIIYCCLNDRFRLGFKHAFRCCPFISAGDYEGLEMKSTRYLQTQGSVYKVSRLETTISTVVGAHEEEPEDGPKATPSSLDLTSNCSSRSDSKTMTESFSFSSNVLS
T6 sequence (Q99705 whole entry): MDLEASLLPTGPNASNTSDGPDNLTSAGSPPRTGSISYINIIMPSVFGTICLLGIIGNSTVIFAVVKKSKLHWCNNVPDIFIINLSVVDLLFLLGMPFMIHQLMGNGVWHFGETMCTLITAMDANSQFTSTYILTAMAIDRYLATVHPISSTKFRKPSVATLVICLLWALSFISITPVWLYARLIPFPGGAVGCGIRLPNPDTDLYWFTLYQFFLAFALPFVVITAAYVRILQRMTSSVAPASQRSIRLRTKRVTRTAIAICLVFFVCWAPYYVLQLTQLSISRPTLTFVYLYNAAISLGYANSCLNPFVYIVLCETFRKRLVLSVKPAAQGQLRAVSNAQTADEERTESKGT
T5 sequence (P33032 whole entry): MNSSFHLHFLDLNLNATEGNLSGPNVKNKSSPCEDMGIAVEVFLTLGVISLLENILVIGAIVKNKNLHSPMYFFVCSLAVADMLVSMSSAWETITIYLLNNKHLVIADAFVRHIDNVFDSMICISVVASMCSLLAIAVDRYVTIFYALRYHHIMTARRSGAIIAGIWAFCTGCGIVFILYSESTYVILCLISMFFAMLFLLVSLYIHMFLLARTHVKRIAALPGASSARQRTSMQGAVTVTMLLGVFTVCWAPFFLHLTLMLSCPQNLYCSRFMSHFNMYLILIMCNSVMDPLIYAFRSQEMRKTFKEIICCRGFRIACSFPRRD
T2 sequence (P41145 whole entry): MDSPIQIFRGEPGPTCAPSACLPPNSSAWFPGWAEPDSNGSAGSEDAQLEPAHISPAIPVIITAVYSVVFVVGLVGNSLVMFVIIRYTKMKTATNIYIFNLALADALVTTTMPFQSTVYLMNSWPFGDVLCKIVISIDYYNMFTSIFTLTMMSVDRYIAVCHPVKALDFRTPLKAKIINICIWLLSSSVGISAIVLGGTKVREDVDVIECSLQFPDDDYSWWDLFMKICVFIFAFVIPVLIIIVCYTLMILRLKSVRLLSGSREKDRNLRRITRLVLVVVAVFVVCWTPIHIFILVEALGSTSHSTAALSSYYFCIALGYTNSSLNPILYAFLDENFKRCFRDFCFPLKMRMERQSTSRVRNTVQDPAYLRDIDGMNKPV
T4 sequence (P32245 whole entry): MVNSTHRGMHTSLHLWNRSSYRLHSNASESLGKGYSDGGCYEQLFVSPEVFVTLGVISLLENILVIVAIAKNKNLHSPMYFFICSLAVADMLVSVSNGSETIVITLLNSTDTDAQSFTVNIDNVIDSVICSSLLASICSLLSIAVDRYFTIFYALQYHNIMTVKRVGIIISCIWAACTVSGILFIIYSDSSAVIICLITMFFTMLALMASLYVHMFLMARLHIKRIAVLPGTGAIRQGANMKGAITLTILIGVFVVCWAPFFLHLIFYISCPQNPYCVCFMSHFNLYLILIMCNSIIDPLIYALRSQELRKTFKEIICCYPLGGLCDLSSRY
T3 sequence (P41968 whole entry): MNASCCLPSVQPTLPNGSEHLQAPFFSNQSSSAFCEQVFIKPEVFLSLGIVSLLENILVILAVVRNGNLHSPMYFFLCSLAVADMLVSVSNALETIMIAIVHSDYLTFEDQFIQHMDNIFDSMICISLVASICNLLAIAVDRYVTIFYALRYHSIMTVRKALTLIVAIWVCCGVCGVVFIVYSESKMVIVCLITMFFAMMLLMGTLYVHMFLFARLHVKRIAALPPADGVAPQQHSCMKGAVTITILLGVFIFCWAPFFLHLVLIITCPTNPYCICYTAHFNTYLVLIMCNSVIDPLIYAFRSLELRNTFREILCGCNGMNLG
T7 sequence (P35372 whole entry): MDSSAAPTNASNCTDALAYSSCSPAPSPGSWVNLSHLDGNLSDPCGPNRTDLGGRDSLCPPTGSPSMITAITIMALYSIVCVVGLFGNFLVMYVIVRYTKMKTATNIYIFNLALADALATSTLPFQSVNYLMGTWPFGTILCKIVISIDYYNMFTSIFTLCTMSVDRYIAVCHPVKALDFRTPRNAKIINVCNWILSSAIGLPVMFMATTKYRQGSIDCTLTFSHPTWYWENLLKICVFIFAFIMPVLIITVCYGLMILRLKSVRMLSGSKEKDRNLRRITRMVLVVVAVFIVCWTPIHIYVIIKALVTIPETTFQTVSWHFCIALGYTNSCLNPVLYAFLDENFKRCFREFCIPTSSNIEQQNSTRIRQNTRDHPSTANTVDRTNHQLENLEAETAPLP

Row | SMILES | A1: inhibition of radioligand binding, human δ-opioid (DOP) [1] | A2: inhibition of radioligand binding, human κ-opioid (KOP) [2] | A3: inhibition of radioligand binding, human melanocortin (MC3) [3] | A4: inhibition of radioligand binding, human melanocortin (MC4) ([4]; 10 µM) | A5: inhibition of radioligand binding, human melanocortin (MC5) [5] | A6: inhibition of radioligand binding, human melanin-concentrating hormone (MCH1) [6] | A7: inhibition of radioligand binding, human μ-opioid (MOP) ([7]; 10 µM) | A8: inhibition of radioligand binding, human neurokinin (NK1) ([8]; 10 µM) | A9: inhibition of radioligand binding, human neuropeptide Y (NPY-Y1) [9] | A10: inhibition of radioligand binding, human opioid (ORL1) ([10]; 10 µM) | A11: inhibition of radioligand binding, mouse urotensin (mUR2) [11] | A4: inhibition of radioligand binding, human melanocortin (MC4) [4] | A6: inhibition of radioligand binding, human melanin-concentrating hormone (MCH1) ([6]; 10 µM) | A7: inhibition of radioligand binding, human μ-opioid (MOP) [7] | A8: inhibition of radioligand binding, human neurokinin (NK1) [8] | A10: inhibition of radioligand binding, human opioid (ORL1) [10] | A5: inhibition of radioligand binding, human melanocortin (MC5) ([5]; 10 µM)
1 | NCCC(=O)NC1C(OCc2ccc(Cl)cc2)OC(COCc2ccc(Cl)cc2)C(O)C1OCc1ccccc1 (single isomer, unassigned) [compound 488] | − (“−” indicates less than 50% inhibition at 10 μM) | − (“−” indicates less than 50% inhibition at 10 μM) | − (“−” indicates less than 50% inhibition at 10 μM) | + (“+” indicates greater than 50% inhibition at 10 μM) | + (“+” indicates greater than 50% inhibition at 10 μM) | − (“−” indicates less than 50% inhibition at 10 μM) | − (“−” indicates less than 50% inhibition at 10 μM) | + (“+” indicates greater than 50% inhibition at 10 μM) | − (“−” indicates less than 50% inhibition at 10 μM) | + (“+” indicates greater than 50% inhibition at 10 μM) | − (“−” indicates less than 50% inhibition at 10 μM) | – | – | – | – | – | –
2 | NCCCC(=O)NC1C(OCc2ccc(Cl)cc2)OC(COCc2ccc3ccccc3c2)C(O)C1OCc1ccc(Cl)cc1 (single isomer, unassigned) [compound 489] | − (“−” indicates less than 50% inhibition at 10 μM) | − (“−” indicates less than 50% inhibition at 10 μM) | + (“+” indicates greater than 50% inhibition at 10 μM) | – | + (“+” indicates greater than 50% inhibition at 10 μM) | – | – | – | − (“−” indicates less than 50% inhibition at 10 μM) | – | − (“−” indicates less than 50% inhibition at 10 μM) | + (“+” indicates greater than 50% inhibition at 10 μM) | − (“−” indicates less than 50% inhibition at 10 μM) | + (“+” indicates greater than 50% inhibition at 10 μM) | + (“+” indicates greater than 50% inhibition at 10 μM) | + (“+” indicates greater than 50% inhibition at 10 μM) | –
3 | NCCCC(=O)NC1C(OCc2ccc(Cl)cc2)OC(COCc2ccc3ccccc3c2)C(O)C1OCc1ccc(Cl)cc1 (single isomer, unassigned) [compound 490] | − (“−” indicates less than 50% inhibition at 10 μM) | − (“−” indicates less than 50% inhibition at 10 μM) | + (“+” indicates greater than 50% inhibition at 10 μM) | – | + (“+” indicates greater than 50% inhibition at 10 μM) | – | – | – | − (“−” indicates less than 50% inhibition at 10 μM) | – | − (“−” indicates less than 50% inhibition at 10 μM) | + (“+” indicates greater than 50% inhibition at 10 μM) | + (“+” indicates greater than 50% inhibition at 10 μM) | + (“+” indicates greater than 50% inhibition at 10 μM) | + (“+” indicates greater than 50% inhibition at 10 μM) | + (“+” indicates greater than 50% inhibition at 10 μM) | –
4 | NCCCC(=O)NC1C(OCc2ccc(Cl)cc2)OC(COCc2ccccc2)C(O)C1OCc1ccc(Cl)cc1 (single isomer, unassigned) [compound 491] | − (“−” indicates less than 50% inhibition at 10 μM) | − (“−” indicates less than 50% inhibition at 10 μM) | − (“−” indicates less than 50% inhibition at 10 μM) | − (“−” indicates less than 50% inhibition at 10 μM) | – | – | – | – | − (“−” indicates less than 50% inhibition at 10 μM) | – | − (“−” indicates less than 50% inhibition at 10 μM) | – | − (“−” indicates less than 50% inhibition at 10 μM) | − (“−” indicates less than 50% inhibition at 10 μM) | + (“+” indicates greater than 50% inhibition at 10 μM) | + (“+” indicates greater than 50% inhibition at 10 μM) | − (“−” indicates less than 50% inhibition at 10 μM)
5 | NCCCC(=O)NC1C(OCc2ccc(Cl)cc2)OC(COCc2ccccc2)C(O)C1OCc1ccc(Cl)cc1 (single isomer, unassigned) [compound 492] | − (“−” indicates less than 50% inhibition at 10 μM) | − (“−” indicates less than 50% inhibition at 10 μM) | − (“−” indicates less than 50% inhibition at 10 μM) | + (“+” indicates greater than 50% inhibition at 10 μM) | – | – | – | – | − (“−” indicates less than 50% inhibition at 10 μM) | – | − (“−” indicates less than 50% inhibition at 10 μM) | – | + (“+” indicates greater than 50% inhibition at 10 μM) | − (“−” indicates less than 50% inhibition at 10 μM) | + (“+” indicates greater than 50% inhibition at 10 μM) | + (“+” indicates greater than 50% inhibition at 10 μM) | + (“+” indicates greater than 50% inhibition at 10 μM)
